In US8362000B2, “Azetidinyl diamides as monoacylglycerol lipase inhibitors” (Janssen Pharmaceutica NV, priority 2009, dated 2013):
Numbering of substitutions follows the chain as printed. Where two headings read alike, the source gives them in different places.

Key:
[1] = target: T1, purified wild type MGL (wt-MGLL 6H-11-313) (Homo sapiens, UniProt Q99685)
T1 sequence (Q99685 1-303): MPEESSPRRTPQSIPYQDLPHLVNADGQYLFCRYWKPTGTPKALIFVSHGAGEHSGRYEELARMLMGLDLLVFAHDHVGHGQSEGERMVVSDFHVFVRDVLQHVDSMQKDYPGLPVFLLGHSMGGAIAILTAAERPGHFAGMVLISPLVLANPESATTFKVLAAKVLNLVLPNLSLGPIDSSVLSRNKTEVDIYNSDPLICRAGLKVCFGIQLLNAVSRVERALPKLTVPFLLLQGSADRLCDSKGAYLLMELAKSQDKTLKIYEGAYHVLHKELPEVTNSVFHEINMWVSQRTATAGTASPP

mutant MGL = target: T2, mutant MGL (Homo sapiens, UniProt Q99685, L169S/L176S); assay: MGL ThermoFluor assay - mutant; type: binding
T2 sequence (Q99685 1-303 L169S/L176S): T1 sequence (Q99685 1-303) with L169S, L176S

[2] = ThermoFluor, compound concentration measured by qNMR, read-out: MGL mutant ThermoFluor qKd (using qNMR conc.)
[3] = ThermoFluor concentration-response, read-out: MGL mutant ThermoFluor Kd
[4] = compound concentration measured by qNMR, read-out: MGL mutant ThermoFluor qKd (using qNMR conc.)
[5] = ThermoFluor thermal stability binding assay, read-out: MGL mutant ThermoFluor Kd
[6] = ThermoFluor, compound concentration measured by qNMR, read-out: MGL mutant ThermoFluor qKd (μM) (using qNMR conc.)

Row | Compound | IC50 [1] [µM] | Kd (mutant MGL; [3]) [µM] | other results
1 | Cc1nc2c(C)ccc(Cl)c2cc1C(=O)N1CC(N2CCN(C(=O)c3nccs3)CC2)C1 [Cpd 791] | 1.45 |  | Kd (mutant MGL; [2]): 0.402 µM
2 | O=C(c1cc2ccc(Br)cc2[nH]1)N1CC(N2CCN(C(=O)c3nccs3)CC2)C1 [Cpd 792] | 1.46 |  | Kd (mutant MGL; [2]): 0.973 µM
3 | Cc1nc2cc(C(=O)N3CCN(C4CN(C(=O)c5nccs5)C4)CC3)ccc2n1C1CCCCC1 [Cpd 793] | 1.46 | 0.198 | 
4 | Cc1c(C(=O)N2CC(N3CCN(C(=O)c4nccs4)CC3)C2)oc2c(F)cccc12 [Cpd 794] | 1.47 | 2.11 | 
5 | O=C(c1cnc(NCc2ccccc2)s1)N1CC(N2CCN(C(=O)c3nccs3)CC2)C1 [Cpd 795] | 1.5 | 1.1 | 
6 | Cc1c(C(=O)N2CC(N3CCN(C(=O)c4nccs4)CC3)C2)c2ccccc2n1C [Cpd 796] | 1.53 | 0.099 | 
7 | O=C(c1cnc2ccc(Cl)cc2c1)N1CC(N2CCN(C(=O)c3nccs3)CC2)C1 [Cpd 797] | 1.6 |  | Kd (mutant MGL; [2]): 0.489 µM
8 | Cc1nc2cc(C(=O)N3CC(N4CCN(C(=O)c5nccs5)CC4)C3)ccc2n1C1CCC(F)(F)CC1 [Cpd 798] | 1.63 |  | Kd (mutant MGL; [4]): 0.004 µM
9 | O=C(c1cc2ccc(C(F)(F)F)nc2[nH]1)N1CC(N2CCN(C(=O)c3nccs3)CC2)C1 [Cpd 799] | 1.67 | 0.661 | 
10 | O=C(c1ccc2[nH]c(C3CCCCC3)nc2c1)N1CC(N2CCN(C(=O)c3cscn3)CC2)C1 [Cpd 800] | 1.7 | 1.1 | 
11 | O=C(c1cscn1)N1CCN(C2CN(C(=O)c3sc4cc(C(F)(F)F)ccc4c3Cl)C2)C(C(F)(F)F)C1 (stereo not shown) [Cpd 801] | 1.71 |  | Kd (mutant MGL; [5]): 52.5 µM
12 | O=C(c1ccc(Oc2ncc(C(F)(F)F)cc2Cl)cc1)N1CC(N2CCN(C(=O)C(F)(F)F)CC2)C1 [Cpd 802] | 1.72 |  | Kd (mutant MGL; [4]): 1.67 µM
13 | O=C(c1nccs1)N1CC(N2CCN(C(=O)c3cc4cc(C(F)(F)F)ccc4s3)C(c3ccccc3)C2)C1 (stereo not shown) [Cpd 804] | 1.99 | 0.105 | 
14 | O=C(c1cc(Br)cs1)N1CC(N2CCN(C(=O)c3nccs3)CC2)C1 [Cpd 806] | 2.05 |  | Kd (mutant MGL; [6]): 0.989 µM
15 | O=C(c1ccc2c(c1)[S+]([O-])c1ccccc1O2)N1CC(N2CCN(C(=O)c3nccs3)CC2)C1 (stereo not shown) [Cpd 807] | 2.08 |  | Kd (mutant MGL; [4]): 3.65 µM
16 | O=C(c1cscn1)N1CCN(C2CN(C(=O)c3cc4ccc(C(F)(F)F)nc4o3)C2)CC1 [Cpd 808] | 2.08 | 62.5 | 
17 | O=C(c1cscn1)N1CC(N2CCN(C(=O)c3cc4cc(Cl)ccc4o3)CC2)C1 [Cpd 809] | 2.1 | 0.769 | 
18 | O=C(c1ccccn1)N1CCN(C2CN(C(=O)c3sc4cc(F)ccc4c3Cl)C2)CC1 [Cpd 810] | 2.14 |  | Kd (mutant MGL; [5]): 0.29 µM
19 | O=C(c1ccc(Oc2ccccc2Cl)nc1)N1CC(N2CCN(C(=O)c3cscn3)CC2)C1 [Cpd 811] | 2.15 | 3.33 | 

Row | Compound | IC50 [1] [µM] | Kd (mutant MGL; [3]) [µM] | other results
20 | O=C(c1ccc2c(ccn2CC(F)F)c1)N1CC(N2CCN(C(=O)c3cscn3)CC2)C1 [Cpd 813] | 2.42 |  | Kd (mutant MGL; [4]): 0.499 µM
21 | Cc1c(C(=O)N2CCN(C3CN(C(=O)c4nc(C(F)(F)F)cs4)C3)CC2)sc2cc(C(F)(F)F)ccc12 [Cpd 814] | 2.43 | > 31 | 
22 | O=C(c1ccc(N2CCOCC2)cc1)N1CC(N2CCN(C(=O)c3nccs3)CC2)C1 [Cpd 815] | 2.49 | 0.25 | 
23 | CCNC(=O)COc1ccc(C(=O)N2CC(N3CCN(C(=O)c4nccs4)CC3)C2)cc1 [Cpd 816] | 2.64 |  | Kd (mutant MGL; [2]): 2.84 µM
24 | O=C(c1cc2cc(Cl)ccc2o1)N1CC(N2CCN(C(=O)c3nccs3)CC2)C1 [Cpd 818] | 2.7 | 1 | 
25 | O=C(c1ccc2[nH]ncc2c1)N1CC(N2CCN(C(=O)c3nccs3)CC2)C1 [Cpd 820, 5-({3-[4-(1,3-Thiazol-2-ylcarbonyl)piperazin-1-yl]azetidin-1-yl}carbonyl)-1H-indazole] | 2.81 |  | Kd (mutant MGL; [6]): 0.996 µM
26 | Cc1nc2cc(Cl)cc(Cl)c2cc1C(=O)N1CC(N2CCN(C(=O)c3nccs3)CC2)C1 [Cpd 823] | 2.97 |  | Kd (mutant MGL; [2]): 1.25 µM
27 | Cc1c(C(=O)N2CC(N3CCN(C(=O)c4nccs4)CC3)C2)sc2nc3n(c(=O)c12)CCC3 [Cpd 824] | 3.12 |  | Kd (mutant MGL; [2]): 0.074 µM
28 | Cc1c(C(=O)N2CC(N3CCN(C(=O)c4ccc[nH]4)CC3)C2)nc2ccc(Br)cn12 [Cpd 825] | 3.15 |  | Kd (mutant MGL; [2]): 4.86 µM
29 | Cc1nc2cc(Cl)ccc2cc1C(=O)N1CC(N2CCN(C(=O)c3nccs3)CC2)C1 [Cpd 826] | 3.29 |  | Kd (mutant MGL; [2]): 0.663 µM
30 | O=C(c1ccc2[nH]c(C3CCCCC3)nc2c1)N1CCN(C2CN(C(=O)c3nccs3)C2)CC1 [Cpd 827] | 3.31 | 0.5 | 
31 | O=C(c1cscn1)N1CCN(C2CN(C(=O)c3cc4ccc(C(F)(F)F)cc4[nH]3)C2)CC1 [Cpd 828] | 3.73 | 2.63 | 
32 | O=C(c1ccc2c(c1)CCN2)N1CC(N2CCN(C(=O)c3nccs3)CC2)C1 [Cpd 829, 5-({3-[4-(1,3-Thiazol-2-ylcarbonyl)piperazin-1-yl]azetidin-1-yl}carbonyl)-2,3-dihydro-1H-indole] | 3.91 |  | Kd (mutant MGL; [5]): 0.5 µM
33 | O=C(c1cscn1)N1CC(N2CCN(C(=O)c3cc4nc(C(F)(F)F)ccc4[nH]3)CC2)C1 [Cpd 830] | 3.94 |  | Kd (mutant MGL; [2]): 1.96 µM
34 | CC(C)n1c(C(F)(F)F)nc2cc(C(=O)N3CC(N4CCN(C(=O)c5cscn5)CC4)C3)ccc21 [Cpd 831] | 4.1 | 0.27 | 
35 | Cc1nc2cc(C(=O)N3CC(N4CCN(C(=O)c5cscn5)CC4)C3)ccc2n1C1CCCCC1 [Cpd 832] | 4.24 |  | Kd (mutant MGL; [5]): 0.059 µM
36 | O=C(c1sc2cc(C(F)(F)F)ccc2c1Cl)N1CC(N2CCN(C(=O)c3cscn3)C(C(F)(F)F)C2)C1 (stereo not shown) [Cpd 833] | 4.56 |  | Kd (mutant MGL; [6]): 3.33 µM
37 | O=C(c1ccc2c(c1)ncn2C1CCC(F)(F)CC1)N1CC(N2CCN(C(=O)c3cscn3)CC2)C1 [Cpd 834] | 4.6 |  | Kd (mutant MGL; [4]): 0.234 µM
38 | Cc1nc2ccc(Cl)cc2cc1C(=O)N1CC(N2CCN(C(=O)c3nccs3)CC2)C1 [Cpd 835] | 4.71 |  | Kd (mutant MGL; [2]): 2.45 µM

Row | Compound | IC50 [1] [µM] | Kd (mutant MGL; [3]) [µM] | other results
39 | CC(=O)NCCOc1ccc(C(=O)N2CC(N3CCN(C(=O)c4nccs4)CC3)C2)cc1 [Cpd 836] | 4.76 |  | Kd (mutant MGL; [2]): 2.25 µM
40 | O=C(c1ccc(Oc2cc(C(F)(F)F)ccn2)cc1)N1CC(N2CCN(C(=O)C(F)(F)F)CC2)C1 [Cpd 837] | 5.04 |  | Kd (mutant MGL; [4]): 20 µM
41 | Cn1cc(C(=O)N2CC(N3CCN(C(=O)c4nccs4)CC3)C2)c2ccccc21 [Cpd 838] | 5.11 | 0.978 | 
42 | Cc1c(C(=O)N2CCN(C3CN(C(=O)c4ccc[nH]4)C3)CC2)n(C)c2ccc(Cl)cc12 [Cpd 839] | 5.14 |  | Kd (mutant MGL; [2]): 2.5 µM
43 | COc1cccc2c(C)c(C(=O)N3CC(N4CCN(C(=O)c5cscn5)CC4)C3)[nH]c12 [Cpd 840] | 5.16 | 2 | 
44 | O=C(c1ccc2c(c1)ncn2CC(F)(F)F)N1CC(N2CCN(C(=O)c3cscn3)CC2)C1 [Cpd 841] | 5.26 |  | Kd (mutant MGL; [4]): 0.917 µM
45 | O=C(c1ccc2nc(C(F)(F)F)cc(Cl)c2c1)N1CCN(C2CN(C(=O)c3nccs3)C2)CC1 [Cpd 842] | 5.53 | 0.986 | 
46 | O=C(c1ccc(N2CCS(=O)(=O)CC2)cc1)N1CC(N2CCN(C(=O)c3nccs3)CC2)C1 [Cpd 843] | 5.53 | 2.13 | 
47 | O=C(c1cc2ccc(C(F)(F)F)nc2o1)N1CC(N2CCN(C(=O)c3nccs3)CC2)C1 [Cpd 844] | 6.1 | 62.5 | 
48 | COc1ccc2cc(C(=O)N3CC(N4CCN(C(=O)c5nccs5)CC4)C3)c(C)nc2c1 [Cpd 845] | 6.42 |  | Kd (mutant MGL; [2]): 1.62 µM
49 | O=C(c1ccc2nc(C(F)(F)F)cc(Cl)c2c1)N1CC(N2CCN(C(=O)c3cscn3)CC2)C1 [Cpd 848] | 6.9 | 0.833 | 
50 | COc1ccc(C(C)(C)C)cc1C(=O)N1CC(N2CCN(C(=O)c3nccs3)CC2)C1 [Cpd 849] | 7.01 | 2.7 | 
51 | COc1ccc2c(C)c(C(=O)N3CC(N4CCN(C(=O)c5cscn5)CC4)C3)oc2c1 [Cpd 850] | 7.28 | 1 | 
52 | O=C(c1ccc2c(c1)ncn2CCC(F)(F)F)N1CC(N2CCN(C(=O)c3cscn3)CC2)C1 [Cpd 851] | 7.87 |  | Kd (mutant MGL; [4]): 0.883 µM
53 | O=C(c1ccc2[nH]c(C3CCCCC3)nc2c1)N1CCN(C2CN(C(=O)c3cscn3)C2)CC1 [Cpd 853] | 8.34 | 1 | 
54 | O=C(c1ccc2[nH]ccc2c1)N1CC(N2CCN(C(=O)c3ccc[nH]3)CC2)C1 [Cpd 856] | 8.49 |  | Kd (mutant MGL; [6]): 0.855 µM
55 | COc1cccc2c(C)c(C(=O)N3CCN(C4CN(C(=O)c5cscn5)C4)CC3)[nH]c12 [Cpd 857] | 8.72 | 3.33 | 
56 | Cc1nc2cc(C(=O)N3CC(N4CCN(C(=O)c5cscn5)CC4)C3)ccc2n1CC(F)(F)F [Cpd 858] | 8.77 |  | Kd (mutant MGL; [4]): 0.561 µM
